Reference: patent US20080226698A1 (priority 2007, published 2008)

Row | Glass transition temperature of the amorphous form (DSC) | SMILES | Tg of the amorphous form relative to normal storage temperature (normal storage temperature of 20° C. to 25° C.)
1 | – | CN1[C@@H]2C[C@@H](OC(=O)[C@H](CO)c3ccccc3)C[C@H]1[C@@H]1O[C@@H]12 [scopolamine] | lower than the normal storage temperature
2 | about −20 °C | CCN(CC)CC#CCOC(=O)C(O)(c1ccccc1)C1CCCCC1 (centres unmarked) [oxybutynin base, oxybutynin] | –
